{"source": "paper PMC4791597", "about": "(Scientific Reports, 2016)", "target": "T1, PrP^C (cellular prion protein) (Mus musculus, UniProt P04925)", "T1 construct": "gene Prnp", "T1 sequence (P04925 23-230 limits assumed)": "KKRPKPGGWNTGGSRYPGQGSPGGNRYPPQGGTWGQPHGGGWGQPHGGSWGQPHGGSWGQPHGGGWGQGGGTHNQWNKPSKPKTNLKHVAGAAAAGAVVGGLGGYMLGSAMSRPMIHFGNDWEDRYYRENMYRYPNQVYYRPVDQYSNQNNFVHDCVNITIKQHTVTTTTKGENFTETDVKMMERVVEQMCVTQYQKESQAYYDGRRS", "type": "binding", "data": [{"molecule": "C[n+]1ccc(C2=C3C=CC(=N3)C(c3cc[n+](C)cc3)=c3ccc4[n]3[Fe+][n]3c2ccc3C(c2cc[n+](C)cc2)=C2C=CC(=N2)C=4c2cc[n+](C)cc2)cc1", "note": "[Fe(III)-TMPyP]", "values": [{"measurement": "Kd", "result": 1.21, "unit": "µM"}]}]}
